Test results published in ChEMBL document CHEMBL1147337, “A new bastadin from the sponge Psammaplysilla purpurea” (J Nat Prod, 1993).
In brackets after ≈: the same amount, converted by molar mass.

Columns and labels:
A549 = assay: Cytotoxicity against human A549 cells; assay type: functional, cell-based
P388 = assay: Cytotoxicity against mouse P388 cells; assay type: functional, cell-based
HT-29 = assay: Cytotoxicity against human HT-29 cells; assay type: functional, cell-based
[1] = Cytotoxicity against african green monkey CV1 cells; assay type: cell-based; conditions: Chlorocebus aethiops, CV-1
[2] = biological target: DNA topoisomerase 2-alpha (Homo sapiens, UniProt P11388); assay: Inhibition of topoisomerase 2
Dihydrofolate reductase = biological target: T1, Dihydrofolate reductase (Homo sapiens, UniProt P00374); assay: Inhibition of DHFR
T1 sequence (P00374 whole entry): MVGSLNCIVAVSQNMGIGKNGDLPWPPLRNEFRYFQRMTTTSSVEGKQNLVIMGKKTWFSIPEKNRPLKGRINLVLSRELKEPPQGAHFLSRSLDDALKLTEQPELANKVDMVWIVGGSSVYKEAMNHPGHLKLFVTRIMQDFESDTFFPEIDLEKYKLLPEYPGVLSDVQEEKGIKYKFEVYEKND

DNA topoisomerase 2-alpha, sequence (P11388 whole entry): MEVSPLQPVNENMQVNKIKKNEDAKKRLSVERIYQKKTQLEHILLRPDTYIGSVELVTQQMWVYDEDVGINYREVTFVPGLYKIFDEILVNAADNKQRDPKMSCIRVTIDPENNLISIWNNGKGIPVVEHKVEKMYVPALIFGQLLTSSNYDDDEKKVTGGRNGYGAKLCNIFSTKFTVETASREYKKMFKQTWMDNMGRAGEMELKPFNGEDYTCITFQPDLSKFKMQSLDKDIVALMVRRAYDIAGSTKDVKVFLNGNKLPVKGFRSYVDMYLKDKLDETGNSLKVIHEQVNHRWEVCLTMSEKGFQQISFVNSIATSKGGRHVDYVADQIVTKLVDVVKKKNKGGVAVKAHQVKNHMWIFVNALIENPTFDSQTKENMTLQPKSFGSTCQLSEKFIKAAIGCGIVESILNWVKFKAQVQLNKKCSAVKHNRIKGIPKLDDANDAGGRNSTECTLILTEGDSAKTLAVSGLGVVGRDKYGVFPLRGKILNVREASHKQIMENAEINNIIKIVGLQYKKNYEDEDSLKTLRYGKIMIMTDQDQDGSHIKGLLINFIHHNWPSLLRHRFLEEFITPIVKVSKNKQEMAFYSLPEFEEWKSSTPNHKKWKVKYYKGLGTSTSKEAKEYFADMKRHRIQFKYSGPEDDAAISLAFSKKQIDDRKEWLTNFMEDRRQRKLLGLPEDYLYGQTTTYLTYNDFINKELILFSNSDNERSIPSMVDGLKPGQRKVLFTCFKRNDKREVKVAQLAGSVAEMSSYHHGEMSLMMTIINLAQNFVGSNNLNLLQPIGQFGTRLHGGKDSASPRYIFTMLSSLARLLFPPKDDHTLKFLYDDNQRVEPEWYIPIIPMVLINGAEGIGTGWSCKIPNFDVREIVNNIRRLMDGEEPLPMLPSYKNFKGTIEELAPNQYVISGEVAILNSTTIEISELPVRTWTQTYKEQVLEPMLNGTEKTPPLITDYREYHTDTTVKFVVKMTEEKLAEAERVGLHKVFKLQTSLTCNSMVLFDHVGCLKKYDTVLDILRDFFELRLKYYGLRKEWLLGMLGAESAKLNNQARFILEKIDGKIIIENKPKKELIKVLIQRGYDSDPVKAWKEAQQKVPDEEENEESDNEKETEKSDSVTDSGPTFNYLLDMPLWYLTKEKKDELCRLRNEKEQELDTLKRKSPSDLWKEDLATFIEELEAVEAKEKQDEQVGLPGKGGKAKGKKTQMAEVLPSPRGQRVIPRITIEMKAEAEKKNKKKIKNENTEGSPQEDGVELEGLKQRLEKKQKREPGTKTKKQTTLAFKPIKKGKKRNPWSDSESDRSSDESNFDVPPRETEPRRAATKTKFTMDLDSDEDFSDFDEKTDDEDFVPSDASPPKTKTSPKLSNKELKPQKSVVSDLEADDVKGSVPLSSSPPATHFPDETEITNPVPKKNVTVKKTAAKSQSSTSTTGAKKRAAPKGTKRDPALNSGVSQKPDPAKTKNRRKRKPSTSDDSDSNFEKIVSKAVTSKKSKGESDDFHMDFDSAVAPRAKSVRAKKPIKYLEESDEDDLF

Q: What does the source list for `O=C1N/C=C/c2cc(Br)c(c(Br)c2)Oc2cc(cc(Br)c2O)CCNC(=O)/C(=N/O)Cc2ccc(c(Br)c2)Oc2cc(cc(Br)c2O)C/C1=N\O` [BASTADIN 14]?
A: IC50 (A549): 2 µg/mL (≈ 1.97 µM); IC50 (P388): 2 µg/mL (≈ 1.97 µM); IC50 (HT-29): 2 µg/mL (≈ 1.97 µM); IC50 [1]: 2.5 µg/mL (≈ 2.46 µM); IC50 [2]: 1970 nM; IC50 (Dihydrofolate reductase): 2460 nM
